Assay results taken from the CheMixHub viscosity set.
± gives the uncertainty stated by the source.

Assay: xn = mol fraction of the nth substance listed

CC(C)c1ccccc1 + CC(C)O
viscosity [mPa·s], 101 kPa
Settings | x2 = 0.1013 | x2 = 0.2013 | x2 = 0.2991 | x2 = 0.4002 | x2 = 0.4993 | x2 = 0.6002 | x2 = 0.7002 | x2 = 0.8006 | x2 = 0.9002
303.15 K | 0.6764 ± 0.0055 | 0.6831 ± 0.0054 | 0.7003 ± 0.0055 | 0.7299 ± 0.0056 | 0.7766 ± 0.0058 | 0.8482 ± 0.0062 | 0.9452 ± 0.0067 | 1.104 ± 0.008 | 1.34 ± 0.0091
308.15 K | 0.6347 ± 0.0052 | 0.6402 ± 0.0051 | 0.6534 ± 0.0051 | 0.6776 ± 0.0052 | 0.7151 ± 0.0054 | 0.7732 ± 0.0057 | 0.8534 ± 0.0061 | 0.9869 ± 0.0069 | 1.183 ± 0.008
313.15 K | 0.5971 ± 0.0049 | 0.599 ± 0.0048 | 0.6093 ± 0.0048 | 0.6291 ± 0.0049 | 0.6596 ± 0.005 | 0.7081 ± 0.0053 | 0.7742 ± 0.0056 | 0.8854 ± 0.0062 | 1.046 ± 0.0071
318.15 K | 0.562 ± 0.0047 | 0.5619 ± 0.0046 | 0.5682 ± 0.0046 | 0.5853 ± 0.0046 | 0.611 ± 0.0047 | 0.6508 ± 0.0049 | 0.7041 ± 0.0052 | 0.7975 ± 0.0057 | 0.9303 ± 0.0064
323.15 K | 0.5287 ± 0.0044 | 0.5275 ± 0.0043 | 0.5322 ± 0.0043 | 0.5444 ± 0.0043 | 0.5654 ± 0.0044 | 0.5976 ± 0.0045 | 0.6419 ± 0.0048 | 0.7195 ± 0.0052 | 0.8272 ± 0.0058

CCCCOC(C)=O + CN1CCCC1=O
viscosity [mPa·s], 101 kPa
Settings | x2 = 0.1327 | x2 = 0.256 | x2 = 0.3711 | x2 = 0.4785 | x2 = 0.5792 | x2 = 0.6737 | x2 = 0.7626 | x2 = 0.8463 | x2 = 0.9253
303.15 K | 0.801 ± 0.017 | 0.941 ± 0.02 | 1.061 ± 0.022 | 1.165 ± 0.024 | 1.258 ± 0.026 | 1.339 ± 0.028 | 1.405 ± 0.029 | 1.463 ± 0.03 | 1.512 ± 0.031
308.15 K | 0.737 ± 0.015 | 0.861 ± 0.018 | 0.968 ± 0.02 | 1.059 ± 0.022 | 1.143 ± 0.024 | 1.213 ± 0.025 | 1.273 ± 0.026 | 1.325 ± 0.028 | 1.37 ± 0.028
313.15 K | 0.69 ± 0.014 | 0.805 ± 0.017 | 0.905 ± 0.019 | 0.991 ± 0.021 | 1.065 ± 0.022 | 1.13 ± 0.024 | 1.187 ± 0.025 | 1.236 ± 0.026 | 1.28 ± 0.027
318.15 K | 0.642 ± 0.013 | 0.745 ± 0.016 | 0.834 ± 0.017 | 0.911 ± 0.019 | 0.978 ± 0.02 | 1.037 ± 0.022 | 1.088 ± 0.023 | 1.131 ± 0.024 | 1.173 ± 0.024

Clc1ccccc1Cl + Nc1cccc(Cl)c1
viscosity [mPa·s], 100 kPa
Settings | x2 = 0.1053 | x2 = 0.2011 | x2 = 0.3045 | x2 = 0.4064 | x2 = 0.507 | x2 = 0.6062 | x2 = 0.7041 | x2 = 0.8007 | x2 = 0.906
303.15 K | 1.568 ± 0.012 | 1.866 ± 0.014 | 2.184 ± 0.016 | 2.495 ± 0.018 | 2.799 ± 0.02 | 3.097 ± 0.022 | 3.389 ± 0.024 | 3.674 ± 0.026 | 3.983 ± 0.028
308.15 K | 1.444 ± 0.012 | 1.71 ± 0.013 | 1.995 ± 0.015 | 2.274 ± 0.017 | 2.546 ± 0.019 | 2.812 ± 0.021 | 3.072 ± 0.023 | 3.326 ± 0.025 | 3.6 ± 0.027
313.15 K | 1.319 ± 0.011 | 1.555 ± 0.013 | 1.807 ± 0.014 | 2.053 ± 0.016 | 2.293 ± 0.018 | 2.527 ± 0.019 | 2.756 ± 0.021 | 2.979 ± 0.023 | 3.22 ± 0.025
318.15 K | 1.206 ± 0.011 | 1.412 ± 0.012 | 1.629 ± 0.013 | 1.842 ± 0.015 | 2.048 ± 0.017 | 2.25 ± 0.018 | 2.447 ± 0.02 | 2.639 ± 0.021 | 2.845 ± 0.023

Oc1ccccc1Cl + CCOCCO
viscosity [mPa·s], 101 kPa
Settings | x1 = 0.0961 | x1 = 0.193 | x1 = 0.2907 | x1 = 0.3894 | x1 = 0.4889 | x1 = 0.5893 | x1 = 0.6906 | x1 = 0.7928 | x1 = 0.8959
303.15 K | 2.185 ± 0.05 | 2.825 ± 0.064 | 3.45 ± 0.077 | 3.996 ± 0.088 | 4.376 ± 0.096 | 4.53 ± 0.099 | 4.41 ± 0.097 | 4.05 ± 0.089 | 3.486 ± 0.077
308.15 K | 1.948 ± 0.045 | 2.453 ± 0.056 | 2.949 ± 0.066 | 3.365 ± 0.075 | 3.66 ± 0.081 | 3.784 ± 0.084 | 3.706 ± 0.082 | 3.43 ± 0.076 | 3.005 ± 0.067
313.15 K | 1.725 ± 0.04 | 2.133 ± 0.049 | 2.524 ± 0.057 | 2.868 ± 0.064 | 3.106 ± 0.069 | 3.215 ± 0.072 | 3.17 ± 0.071 | 2.974 ± 0.067 | 2.664 ± 0.06
318.15 K | 1.567 ± 0.037 | 1.887 ± 0.044 | 2.19 ± 0.05 | 2.449 ± 0.056 | 2.63 ± 0.059 | 2.724 ± 0.061 | 2.702 ± 0.061 | 2.57 ± 0.058 | 2.341 ± 0.053

Clc1ccccc1Cl + CC#N
308.15 K, 101 kPa
Settings | viscosity [mPa·s]
x1 = 0.1003 | 0.3803 ± 0.0088
x1 = 0.2063 | 0.4569 ± 0.01
x1 = 0.3069 | 0.5299 ± 0.011
x1 = 0.4058 | 0.6077 ± 0.013
x1 = 0.4918 | 0.676 ± 0.014
x1 = 0.5925 | 0.7617 ± 0.016
x1 = 0.6956 | 0.8443 ± 0.017
x1 = 0.7945 | 0.9395 ± 0.019
x1 = 0.9016 | 1.027 ± 0.021

CCCCCCCC(=O)O + CC(C)[C@@H]1CC[C@@H](C)C[C@H]1O
viscosity [mPa·s]
Settings | 293.15 K | 298 K | 298.15 K | 303.15 K | 308.15 K | 313.15 K | 318.15 K | 323.15 K
100 kPa, x1 = 0.4 | 19.83 ± 0.18 | – | 15.29 ± 0.14 | 12.01 ± 0.11 | 9.58 ± 0.09 | 7.8 ± 0.07 | 6.43 ± 0.06 | 5.37 ± 0.05
101 kPa, x2 = 0.333 | – | 12 ± 0.5 | – | – | – | – | – | –
